In EPA's ToxValDB 9.5:
Several values for one entry are separate records, joined by “and”; a condition that tells them apart may be missing. Identical values can stand only once.

How the values were obtained:
[1] = test system: Rattus norvegicus; conditions: M/F
[2] = test system: Rattus norvegicus; conditions: oral
[3] = test system: Mus musculus; conditions: developmental; oral; gavage; M; neurobehavioral effects
[4] = test system: Mus musculus; conditions: reproduction developmental, oral, gavage, M, NMRI, generation: P0
[5] = test system: Rattus norvegicus; conditions: short-term, duration: 28 days, oral, gavage, Sprague-Dawley
[6] = test system: Mus musculus; conditions: repeat dose other; oral
[7] = test system: Rattus norvegicus; conditions: repeat dose other; oral
[8] = test system: Anas platyrhynchos; conditions: oral
[9] = test system: Rattus norvegicus
[10] = test system: Rattus norvegicus; conditions: for LD50: acute
[11] = test system: Canidae; conditions: subchronic; duration: 90 days; oral; diet; Beagle
[12] = test system: Oryctolagus sp.; conditions: New Zealand; for NOAEL: duration: 13 days, oral, gavage
[13] = test system: Rattus norvegicus; conditions: chronic; duration: 2 years; oral; diet; Liver: Increased weight
[14] = test system: Neovison sp.; conditions: repeat dose other; oral; Mink
[15] = subchronic, oral, lesions in liver, kidney and thyroid
[16] = M, Clinical Observation: Locomotor activity decrease, Salivation + Functional Observational Battery: Locomotor activity decrease, Salivation + …
[17] = reproduction developmental, duration: 43 days, oral, gavage, F, Sprague-Dawley
[18] = reproduction developmental, duration: 43 days, oral, gavage, M, Sprague-Dawley
[19] = reproduction developmental, duration: 43 days, oral, gavage, Sprague-Dawley, generation: F1
[20] = short-term, duration: 28 days, oral, gavage
[21] = subchronic, duration: 90 days, oral, diet, Sprague-Dawley
[22] = reproduction developmental, duration: 10 days, oral, gavage, F, CD
[23] = chronic, duration: 2 years, oral, diet, liver weight increased males

CC(Cl)C(Cl)Cl (stereo not drawn) [1,1,2-Trichloropropane]
LOAEL [1, 15]: 150 mg/kg-day
NOEL [1, 15]: 15 mg/kg-day
NOAEL ([2]; subchronic, duration: 90 days, drinking water, M/F, Sprague-Dawley, Hepatic, Other): 14 mg/kg-day

Brc1cc(Br)c(Oc2cc(Br)c(Br)cc2Br)cc1Br [2,2',4,4',5,5'-Hexabromodiphenyl ether]
LOAEL [3]: 0.9 mg/kg-day
NOAEL [3]: 0.45 mg/kg-day
LOEL ([4]; P0: Morris water maze (latency, last trial) + P0: Morris water maze (latency, middle trial) + P0: Morris water maze (latency, reversal trial…): 0.9 mg/kg-day
LOEL ([4]; P0: Morris water maze (latency, middle trial)): 9 mg/kg-day

Cc1ccc(N)c(C)c1 [2,4-Dimethylaniline]
LOAEL ([2]; chronic, duration: 6 months, diet, M, Osborne-Mendel): 18 mg/kg-day

Nc1cccc(O)c1 [3-Aminophenol]
NOAEL ([5]; M/F, Clinical Observation: Tremor Salivation + Body Weight Changes: decrease + Food Consumption: decrease + Water Consumption: increase + …): 240 mg/kg-day
NOAEL ([2]; short-term, duration: 18 days, gavage, M/F, Sprague-Dawley, Whole Body Effects): 80 mg/kg-day

O=S(=O)(O)c1ccc(Cl)cc1 [4-Chlorobenzenesulphonic acid]
NOAEL ([2]; subchronic, duration: 32 days, gavage, M/F, S-D): 1800 mg/kg-day

c1ccc2c(c1)cc1ccc3cccc4ccc2c1c34 [Benzo[a]pyrene]
LOAEL ([1]; developmental, duration: 9 days, inhalation, reduced embryo/fetal survival): 0.025 mg/m3
LOAEL [6]: 10 mg/kg-day
NOAEL [6]: 1 mg/kg-day

[Cl][Cd][Cl] [Cadmium chloride]
LOAEL [7]: 10 mg/kg-day
NOAEL [7]: 1 mg/kg-day
LOAEL [8]: 20 mg/kg-day
NOAEL [8]: 1.45 mg/kg-day

ClC(Cl)(Cl)Cl [Carbon tetrachloride]
NOAEL ([9]; chronic, duration: 104 weeks, inhalation, whole body, M/F, Fischer 344, hepatic): 31.5 mg/m3
NOAEL ([9]; chronic, duration: 205 days, inhalation, M/F, Wistar, hepatic): 31.5 mg/m3
LOAEL ([9]; short-term, duration: 10 days, oral, gavage, M, Fischer 344, hepatic): 5 mg/kg-day
NOAEL ([9]; subchronic, duration: 12 weeks, oral, gavage, M, Sprague-Dawley, hepatic): 1 mg/kg-day
NOAEL [7]: 16 mg/kg-day
NOAEL [5, 16]: < 20 mg/kg-day
NOEL [5, 16]: < 20 mg/kg-day

BrCBr [Dibromomethane]
LOAEL [10, 17]: 500 mg/kg-day
NOAEL [10, 17]: 150 mg/kg-day
LOAEL [10, 18]: 150 mg/kg-day
NOAEL [10, 18]: 50 mg/kg-day
LOAEL [10, 19]: 500 mg/kg-day
NOAEL [10, 19]: 150 mg/kg-day
NOAEL ([2]; short-term, duration: 28 days, drinking water, M/F, Sprague-Dawley, Hematologic): 8.6 mg/kg-day

O=S(=O)(c1ccccc1)c1ccccc1 [Diphenylsulfone]
NOAEL ([2]; subchronic, duration: 13 weeks, diet, M): 8 mg/kg-day

CCCCCCCCCCCCCCCCc1c(Oc2ccccc2S(=O)(=O)O)cccc1S(=O)(=O)O.[Na+].[Na+] [Disodium hexadecyl(sulfophenoxy)benzenesulfonate]
LD50 ([10]; dermal, occlusive, Sprague-Dawley): > 2000 mg/kg
LD50 ([10]; dermal, occlusive, Wistar): > 2000 mg/kg
LD50 ([10]; oral, gavage): > 3980 mg/kg
LD50 ([10]; oral, gavage, Fischer 344): 1500 mg/kg and > 2000 mg/kg
LD50 ([10]; oral, gavage, Sprague-Dawley): 7740 mg/kg and > 5000 mg/kg
LD50 ([10]; oral, gavage, Wistar): > 5000 mg/kg
LOAEL [10, 20]: 1000 mg/kg-day
NOAEL [10, 20]: 250 mg/kg-day
LOAEL [10, 21]: 200 mg/kg-day
NOAEL [10, 21]: 100 mg/kg-day
NOAEL [11]: 200 mg/kg-day

O=C(O)CCCC(=O)O [Glutaric acid]
LD50 ([10]; oral, Sprague-Dawley): 2750 mg/kg
NOAEL ([10]; developmental, duration: 10 days, oral, gavage, CD): 1300 mg/kg-day
LOAEL [10, 22]: 400 mg/kg-day
NOAEL [10, 22]: 125 mg/kg-day
NOAEL ([10]; reproduction developmental, duration: 10 days, oral, gavage, F, Sprague-Dawley): ≥ 1000 mg/kg-day
LOAEL (% diet) [10, 21]: 2
NOAEL (% diet) [10, 21]: ≥ 1
LD50 ([12]; acute, dermal, occlusive): > 10000 mg/kg
NOAEL ([12]; developmental): > 500 mg/kg-day
NOAEL ([12]; reproduction developmental, F): > 500 mg/kg-day
LOAEL (% diet) [11]: 3
NOAEL (% diet) [11]: ≥ 2

ClC1=C(Cl)C2(Cl)C3C(Cl)C=CC3C1(Cl)C2(Cl)Cl (stereo not drawn) [Heptachlor]
LEL [1, 23]: 0.25 mg/kg-day
NOEL [1, 23]: 0.15 mg/kg-day
LOAEL ([9]; reproduction developmental, duration: 14 days, oral, gavage, F, CFT-Wistar, reproductive): 1.8 mg/kg-day
LOAEL ([9]; reproduction developmental, duration: 364 days, oral, gavage, M/F, Sprague-Dawley, immunological, neurological): 0.03 mg/kg-day
NOEL [13]: 0.15 mg/kg-day
LOAEL [14]: 1 mg/kg-day
NOAEL [14]: 0.1 mg/kg-day
